In US8895762B2, “Process for the preparation of sulfamide derivatives” (Janssen Pharmaceutica NV, priority 2011, dated 2014):

Test: solubility in water at room temperature
Format: physicochemical

In the case of `NC[C@H]1COc2cc(Cl)ccc2O1` [compound of formula (V-S), (2S)-6-chloro-2,3-dihydro-1,4-benzodioxin-2-methanamine], the solubility in water was 0.35 g/100 g water.
